This test concerns L1210 leukemia ip in BDF1 mice, survival T/C. Briefly: NCI In Vivo Anticancer Drug Screen. Data for tumor model L1210 Leukemia (intraperitoneal) in B6D2F1 (BDF1) mice. The settings on record: endpoint: mean survival time, higher = longer survival. On the procedure:
The antitumor activity of compounds was measured in mice bearing transplantable tumors. Survival or tumor size were measured and the results are expressed as the measurement made in the treated group (T) divided by the measurement made in the vehicle treated control group (C). The tumor model used in this assay is L1210 Leukemia (intraperitoneal) in B6D2F1 (BDF1) mice

The mark [1] stands for this setting: dose: 100.0 mg/kg/injection, schedule: Q01DX009 (ip), vehicle: Klucel (hydroxypropylcellulose) (HPC).
[2] abbreviates: dose: 100.0 mg/kg/injection, schedule: Q01DX001 (ip), vehicle: saline.
Where [3] appears, read: dose: 200.0 mg/kg/injection, schedule: Q01DX001 (ip), vehicle: saline.
The mark [4] stands for this setting: dose: 400.0 mg/kg/injection, schedule: Q01DX001 (ip), vehicle: saline.
[5] abbreviates: dose: 100.0 mg/kg/injection, schedule: Q04DX003 (ip), vehicle: saline.
Setting [6] is: dose: 200.0 mg/kg/injection, schedule: Q04DX003 (ip), vehicle: saline.
Where [7] appears, read: dose: 400.0 mg/kg/injection, schedule: Q04DX003 (ip), vehicle: saline.
The mark [8] stands for this setting: dose: 100.0 mg/kg/injection, schedule: Q04DX003 (ip), vehicle: Klucel (hydroxypropylcellulose) (HPC).
[9] abbreviates: dose: 200.0 mg/kg/injection, schedule: Q04DX003 (ip), vehicle: Klucel (hydroxypropylcellulose) (HPC).
Where [10] appears, read: dose: 400.0 mg/kg/injection, schedule: Q04DX003 (ip), vehicle: Klucel (hydroxypropylcellulose) (HPC).
The mark [11] stands for this setting: dose: 100.0 mg/kg/injection, schedule: Q04DX002 (ip), vehicle: saline with Tween-80.
The mark [12] stands for this setting: dose: 100.0 mg/kg/injection, schedule: Q04DX003 (ip), vehicle: saline with Tween-80.
Where [13] appears, read: dose: 200.0 mg/kg/injection, schedule: Q04DX003 (ip), vehicle: saline with Tween-80.
[14] abbreviates: dose: 100.0 mg/kg/injection, schedule: Q01DX009 (ip), vehicle: saline with Tween-80.
Where [15] appears, read: dose: 200.0 mg/kg/injection, schedule: Q01DX009 (ip), vehicle: saline with Tween-80.
[16] abbreviates: dose: 400.0 mg/kg/injection, schedule: Q01DX009 (ip), vehicle: saline with Tween-80.
[17] abbreviates: dose: 400.0 mg/kg/injection, schedule: Q04DX003 (ip), vehicle: saline with Tween-80.

Toxic doses and inconclusive results are not listed.

In the case of `O=C(/C=C1\C(=O)Nc2ccccc21)/C=C1/C(=O)Nc2ccccc21`, the T/C under setting [1] was 93 % of control.

In the case of `CCN=C(c1ccc(NC(=O)c2ccc(C(=O)Nc3ccc(C(=NCC)N(CC)C(=O)Nc4ccc(OC)cc4)cc3)cc2)cc1)N(CC)C(=O)Nc1ccc(OC)cc1`, the T/C runs as follows: (dose: 2.25 mg/kg/injection, schedule: Q01DX015 (ip), vehicle: methylcellulose (MC)) 108 % of control; (dose: 3.12 mg/kg/injection, schedule: Q01DX015 (ip), vehicle: methylcellulose (MC)) 101 % of control; (dose: 4.5 mg/kg/injection, schedule: Q01DX015 (ip), vehicle: methylcellulose (MC)) 110 % of control; (dose: 6.25 mg/kg/injection, schedule: Q01DX015 (ip), vehicle: methylcellulose (MC)) 124 % of control; (dose: 12.5 mg/kg/injection, schedule: Q01DX015 (ip), vehicle: methylcellulose (MC)) 170 % of control.

`O=[N+]([O-])c1ccc2nncn2c1`: the T/C reads like this: (dose: 50.0 mg/kg/injection, schedule: Q01DX001 (ip), vehicle: saline) 91 % of control; under setting [2], 97 % of control; under setting [3], 103 % of control; under setting [4], 101 % of control.

For the molecule `NC(CSCc1ccc([N+](=O)[O-])cc1)C(=O)O` (centres undefined), the T/C was 102 % of control under setting [5], 105 % of control under setting [6] and 96 % of control under setting [7].

As to `CC1(C)C2CCC1(C)C(COC(=O)c1cc([N+](=O)[O-])cc([N+](=O)[O-])c1)C2` (centres undefined), the T/C by setting is: under setting [1], 100 % of control; under setting [8], 104 % of control; (dose: 200.0 mg/kg/injection, schedule: Q01DX009 (ip), vehicle: Klucel (hydroxypropylcellulose) (HPC)) 92 % of control; under setting [9], 100 % of control; (dose: 400.0 mg/kg/injection, schedule: Q01DX009 (ip), vehicle: Klucel (hydroxypropylcellulose) (HPC)) 89 % of control; under setting [10], 102 % of control.

`OC1C(Br)CC(Br)C1O` (centres undefined): the T/C is 97 % of control under setting [11]; 93 % of control (dose: 200.0 mg/kg/injection, schedule: Q04DX002 (ip), vehicle: saline with Tween-80); 101 % of control (dose: 400.0 mg/kg/injection, schedule: Q04DX002 (ip), vehicle: saline with Tween-80).

Turning to `CC1(C)CC(=O)C=C(N2CCC(CCCC3CCN(C4=CC(=O)CC(C)(C)C4)CC3)CC2)C1`, the T/C runs as follows: (dose: 50.0 mg/kg/injection, schedule: Q04DX003 (ip), vehicle: saline with Tween-80) 94 % of control; under setting [12], 102 % of control; under setting [13], 88 % of control.

Regarding `c1ccc(CCNc2ncnc3[nH]ncc23)cc1`, the T/C runs as follows: (dose: 12.0 mg/kg/injection, schedule: Q01DX015 (ip), vehicle: carboxymethylcellulose (CMC)) 97 % of control; (dose: 25.0 mg/kg/injection, schedule: Q01DX015 (ip), vehicle: carboxymethylcellulose (CMC)) 97 % of control; (dose: 50.0 mg/kg/injection, schedule: Q01DX015 (ip), vehicle: carboxymethylcellulose (CMC)) 95 % of control.

With `CCCCOC(=O)CCC(C)=O`, the T/C by setting is: under setting [14], 92 % of control; under setting [12], 109 % of control; under setting [15], 100 % of control; under setting [13], 113 % of control; under setting [16], 96 % of control; under setting [17], 112 % of control.

With `C[n+]1cccc(S(=O)(=O)[O-])c1`, the T/C runs as follows: under setting [5], 104 % of control; under setting [6], 101 % of control; under setting [7], 101 % of control.

On to `O=C(Nc1ccccc1)Oc1ccc(OC(=O)Nc2ccccc2)c(Cl)c1`, for which the T/C is, setting by setting: (dose: 100.0 mg/kg/injection, schedule: Q04DX002 (ip), vehicle: saline + alcohol) 92 % of control; (dose: 200.0 mg/kg/injection, schedule: Q04DX002 (ip), vehicle: saline + alcohol) 92 % of control.

As to `O=C(Nc1ccc(Cl)cc1Cl)c1ccc2c(c1)C(=O)OC2=O`, the T/C is 90 % of control under setting [14], 92 % of control under setting [15] and 92 % of control under setting [16].

Consider `Cc1ccc(S(=O)(=O)NNC(=O)c2cc(C)c(C)cc2NCC(O)C(O)C(O)CO)cc1` (centres undefined), for which the T/C is 93 % of control (dose: 100.0 mg/kg/injection, schedule: Q01DX001 (ip), vehicle: carboxymethylcellulose (CMC)); 98 % of control (dose: 200.0 mg/kg/injection, schedule: Q01DX001 (ip), vehicle: carboxymethylcellulose (CMC)); 89 % of control (dose: 400.0 mg/kg/injection, schedule: Q01DX001 (ip), vehicle: carboxymethylcellulose (CMC)).

Regarding `CCOC(CN=CC1CCC=CO1)OCC` (centres undefined), the T/C by setting is: under setting [12], 91 % of control; under setting [13], 96 % of control; under setting [17], 95 % of control.

Consider `NC(=O)Oc1ccccc1Cl`, for which the T/C is 104 % of control (dose: 75.0 mg/kg/injection, schedule: Q04DX003 (ip), vehicle: Klucel (hydroxypropylcellulose) (HPC)); 100 % of control (dose: 150.0 mg/kg/injection, schedule: Q04DX003 (ip), vehicle: Klucel (hydroxypropylcellulose) (HPC)); 105 % of control (dose: 300.0 mg/kg/injection, schedule: Q04DX003 (ip), vehicle: Klucel (hydroxypropylcellulose) (HPC)).

Consider `COc1ccc2c3c([nH]c2c1)-c1ccccc1SC3`, for which the T/C was 101 % of control (dose: 100.0 mg/kg/injection, schedule: Q04DX003 (ip), vehicle: acetone); 106 % of control (dose: 200.0 mg/kg/injection, schedule: Q04DX003 (ip), vehicle: acetone); 101 % of control (dose: 400.0 mg/kg/injection, schedule: Q04DX003 (ip), vehicle: acetone).

Consider `COc1ccc(C(=O)c2ccccc2)cc1OC`, for which the T/C runs as follows: under setting [8], 89 % of control; under setting [9], 90 % of control; under setting [10], 89 % of control.

Turning to `CCCCN(Cl)C(C)=O`, the T/C runs as follows: under setting [2], 96 % of control; under setting [3], 100 % of control; under setting [4], 96 % of control.

`COc1ccc(OC)c(-c2cc3c(OC)ccc(OC)c3[nH]2)c1`: the T/C is 96 % of control (dose: 25.0 mg/kg/injection, schedule: Q04DX002 (ip), vehicle: saline with Tween-80); 86 % of control (dose: 50.0 mg/kg/injection, schedule: Q04DX002 (ip), vehicle: saline with Tween-80); 99 % of control under setting [11].

`CCOP(=O)(CSCC)OCC`: the T/C was 102 % of control (dose: 100.0 mg/kg/injection, schedule: Q01DX009 (ip), vehicle: saline); 94 % of control under setting [5]; 98 % of control (dose: 200.0 mg/kg/injection, schedule: Q01DX009 (ip), vehicle: saline); 100 % of control under setting [6]; 100 % of control (dose: 400.0 mg/kg/injection, schedule: Q01DX009 (ip), vehicle: saline); 92 % of control under setting [7].

As for `Nc1ccc(Nc2ncnc3nc[nH]c23)cc1`, the T/C by setting is: under setting [12], 102 % of control; under setting [13], 98 % of control; under setting [17], 107 % of control.

Turning to `CC(C)CCN1C(c2ccccc2)=CN(Cc2ccccc2)C=C1c1ccccc1`, the T/C by setting is: (dose: 100.0 mg/kg/injection, schedule: Q04DX002 (ip), vehicle: Klucel (hydroxypropylcellulose) (HPC)) 100 % of control; (dose: 200.0 mg/kg/injection, schedule: Q04DX002 (ip), vehicle: Klucel (hydroxypropylcellulose) (HPC)) 92 % of control; (dose: 400.0 mg/kg/injection, schedule: Q04DX002 (ip), vehicle: Klucel (hydroxypropylcellulose) (HPC)) 95 % of control.

As for `COC(=O)c1cccc2c1C(Br)C(Br)c1ccccc1-2` (centres undefined), the T/C is 101 % of control under setting [2]; 100 % of control under setting [5]; 98 % of control under setting [3]; 97 % of control under setting [6]; 98 % of control under setting [4]; 94 % of control under setting [7].

On to `O=[N+]([O-])c1ccc(O)c(C=NCCCN=Cc2cc([N+](=O)[O-])ccc2O)c1`, for which the T/C was 90 % of control under setting [2], 102 % of control under setting [3] and 96 % of control under setting [4].
